Measured values published in patent publication US20220313658A1, “YAP Inhibition for Wound Healing” (The Board of Trustees of the Leland Stanford Junior …, priority 2019, published 2022).

System: dorsal excisional wounds
Experiment: Quantitative analysis of collagen/ECM ultrastructure (Picrosirius Red, machine learning) of healed wounds
Format: in vivo, mouse
Procedure: For analysis of Picrosirius Red-stained histologic sections, scars and surrounding normal skin from three biologic replicates were randomly imaged at 5 to 10 separate locations each, for a minimum of 20 images per experimental condition. Next, color deconvolution of Picrosirius Red images was performed in ImageJ using the algorithm previously described by Ruifrok et al., (A. C. Ruifrok, D. A. Johnston, Quantification of histochemical staining by color deconvolution. Anal Quant Cytol Histol 23, 291-299 (2001)) wherein each pure stain is characterized by absorbances within three RGB channels (Color 1=[1 0 0], Color 2=[0 1 0], Color 3=[1 1 1]). Ortho-normal transformation of the histology images produced individual images corresponding to each color's individual contribution to the image. Applied to birefringent Picrosirius Red images (green to red color under polarized light depending on packing of fiber bundles), this technique produced deconvoluted red and green images corresponding to mature and immature connective tissue fibers, which were then analyzed independently. Analysis was thus performed purely using extracellular matrix fibers, with no cellular elements included. Noise reduction of deconvoluted fibers was achieved using an adaptive Wiener filter in Matlab 2019a (wiener2 function), which tailors itself to the local image variance within a pre-specified neighborhood (3-by-3 pixels in the current application). The filter preferentially smooths regions with low variance, thereby preserving sharp edges of fibers. Smooth images were then binarized using the im2bw command and processed through erosion and dilation filters with both linear and diamond-shaped structuring elements to select for fiber-shaped objects. Finally, the fiber network was “skeletonized” using the bwmorph command and various parameters of the digitized map (fiber length, width, persistence, alignment, etc.) were measured using the regionprops command. Dimensionality reduction of quantified fiber network properties by […] stochastic neighbor embedding (t-SNE) was achieved using the default tsne (distance metric specified as Euclidian distance) command in Matlab. A Matlab script containing the fiber quantification pipeline is available at the following Github repository: https://github.com/shamikmascharak/Mascharak-et-al-ENF
To overcome these challenges, a novel machine learning algorithm recently reported to quantitatively assess connective tissue and fibrosis based on standard histology stains was employed. (S. Mascharak et al., Automated machine learning analysis of connective tissue networks in acute and chronic skin fibroses (manuscript submitted). (2019)) Briefly, images of Picrosirius Red-stained tissue were color-deconvoluted to isolate ECM fibers from cell bodies and nuclei. Fiber components were image-processed to reduce noise, then binarized to produce a digital map of thousands of fibers and branchpoints. A panel of individual (e.g., length, width) and group (e.g., packing, alignment) fiber properties was then measured to quantitatively profile ECM features.
Verteporfin- and control-treated specimens were stained with Picrosirius Red and subjected to this analysis.

For verteporfin, the “Clustering of connective tissue parameters, Verteporfin-treated wounds vs unwounded skin” value (“Clustering … vs unwounded skin” for short) (30 days) was “increasing overlap”, the “Clustering … vs unwounded skin” value (90 days) was “complete overlap” and the “ECM fiber metrics (fiber length, width, branching, etc.)” value (POD 14) was “comparable to unwounded skin”. The “Clustering … vs unwounded skin” value (after 14 days) was “largely overlapping clusters” and the ECM features (four treatments (POD 0, 4, 8 and 12)) was “diverged from those of unwounded skin”.
